Source: ChEMBL document CHEMBL1145783, “Development of an orexin-2 receptor selective agonist, [Ala(11), D-Leu(15)]orexin-B” (Bioorg Med Chem Lett, 2003)
pEC50: −log10 of the molar value.

molecular target: T1, Orexin receptor type 2 (Homo sapiens, UniProt O43614); assay: Agonist activity against human orexin 2 receptor; EC50; nM; type: functional
T1 sequence (O43614 whole entry): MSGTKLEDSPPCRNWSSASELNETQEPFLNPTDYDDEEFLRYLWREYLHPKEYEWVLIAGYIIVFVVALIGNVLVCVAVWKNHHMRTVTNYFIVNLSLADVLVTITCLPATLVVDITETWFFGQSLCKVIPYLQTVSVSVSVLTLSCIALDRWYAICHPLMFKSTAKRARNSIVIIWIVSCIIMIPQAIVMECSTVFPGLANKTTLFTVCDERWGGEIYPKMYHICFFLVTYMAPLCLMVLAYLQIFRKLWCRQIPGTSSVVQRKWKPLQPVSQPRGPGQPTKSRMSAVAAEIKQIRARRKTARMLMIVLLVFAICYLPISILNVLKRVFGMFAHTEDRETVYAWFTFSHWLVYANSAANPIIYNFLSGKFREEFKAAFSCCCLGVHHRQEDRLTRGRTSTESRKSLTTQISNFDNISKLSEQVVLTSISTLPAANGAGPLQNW

Compound	pEC50
CC[C@H](C)[C@H](NC(=O)[C@H](CC(C)C)NC(=O)[C@@H](NC(=O)[C@@H](N)CCSC)[C@@H](C)O)C(=O)N[C@H](C)C(=O)N[C@@H](C)C(=O)N[C@@H](C)C(=O)N[C@@H](Cc1cnc[nH]1)C(=O)N[C@@H](CC(N)=O)C(=O)NCC(=O)N[C@@H](CO)C(=O)N[C@@H](C)C(=O)N[C@@H](CCC(N)=O)C(=O)N[C@@H](CC(C)C)C(=O)N[C@@H](CC(C)C)C(=O)N[C@@H](CCCN=C(N)N)C(=O)N[C@@H](CCC(N)=O)C(=O)N[C@@H](CC(C)C)C(=O)N[C@@H](CCCN=C(N)N)C(=O)NCC(=O)N[C@@H](CCC(N)=O)C(=O)N[C@@H](CC(C)C)C(=O)NCC(=O)N1CCC[C@H]1C(=O)N1CCC[C@H]1C(=O)NCC(=O)N[C@@H](CO)C(=O)N[C@@H](CCCN=C(N)N)C(N)=O	7.17
CC[C@H](C)[C@H](NC(=O)[C@H](CC(C)C)NC(=O)[C@@H](NC(=O)[C@@H](N)CCSC)[C@@H](C)O)C(=O)NCC(=O)N[C@@H](C)C(=O)N[C@@H](C)C(=O)N[C@@H](Cc1c[nH]cn1)C(=O)N[C@@H](CC(N)=O)C(=O)NCC(=O)N[C@@H](CO)C(=O)N[C@@H](C)C(=O)N[C@@H](CCC(N)=O)C(=O)N[C@@H](CC(C)C)C(=O)N[C@@H](CC(C)C)C(=O)N[C@@H](CCCN=C(N)N)C(=O)N[C@@H](CCC(N)=O)C(=O)N[C@@H](CC(C)C)C(=O)N[C@@H](CCCN=C(N)N)C(=O)NCC(=O)N[C@@H](CCC(N)=O)C(=O)N[C@@H](CC(C)C)C(=O)NCC(=O)N1CCC[C@H]1C(=O)N1CCC[C@H]1C(=O)NCC(=O)N[C@@H](CO)C(=O)N[C@H](CCCN=C(N)N)C(N)=O	9.72
CC[C@H](C)[C@H](NC(=O)[C@H](CC(C)C)NC(=O)[C@@H](NC(=O)[C@@H](N)CCSC)[C@@H](C)O)C(=O)NCC(=O)N[C@@H](C)C(=O)N[C@@H](C)C(=O)N[C@@H](Cc1c[nH]cn1)C(=O)N[C@@H](CC(N)=O)C(=O)NCC(=O)N[C@H](CO)C(=O)N[C@@H](C)C(=O)N[C@@H](CCC(N)=O)C(=O)N[C@@H](CC(C)C)C(=O)N[C@@H](CC(C)C)C(=O)N[C@@H](CCCN=C(N)N)C(=O)N[C@@H](CCC(N)=O)C(=O)N[C@@H](CC(C)C)C(=O)N[C@@H](CCCN=C(N)N)C(=O)NCC(=O)N[C@@H](CCC(N)=O)C(=O)N[C@@H](CC(C)C)C(=O)NCC(=O)N1CCC[C@H]1C(=O)N1CCC[C@H]1C(=O)NCC(=O)N[C@@H](CO)C(=O)N[C@@H](CCCN=C(N)N)C(N)=O	9.34
CC[C@H](C)[C@H](NC(=O)[C@H](CC(C)C)NC(=O)[C@@H](NC(=O)[C@@H](N)CCSC)[C@@H](C)O)C(=O)NCC(=O)N[C@@H](C)C(=O)N[C@@H](C)C(=O)N[C@@H](Cc1c[nH]cn1)C(=O)N[C@@H](CC(N)=O)C(=O)NCC(=O)N[C@@H](CO)C(=O)N[C@@H](C)C(=O)N[C@@H](CCC(N)=O)C(=O)N[C@@H](CC(C)C)C(=O)N[C@@H](CC(C)C)C(=O)N[C@@H](CCCN=C(N)N)C(=O)N[C@H](CCC(N)=O)C(=O)N[C@H](CC(C)C)C(=O)N[C@@H](CCCN=C(N)N)C(=O)NCC(=O)N[C@@H](CCC(N)=O)C(=O)N[C@@H](CC(C)C)C(=O)NCC(=O)N1CCC[C@H]1C(=O)N1CCC[C@H]1C(=O)NCC(=O)N[C@@H](CO)C(=O)N[C@@H](CCCN=C(N)N)C(N)=O	9.96
H-MTLIGAAHNGSAQLLRQLRGQLGPPGSA-NH2	9.70
CC[C@H](C)[C@H](NC(=O)[C@H](CC(C)C)NC(=O)[C@@H](NC(=O)[C@@H](N)CCSC)[C@@H](C)O)C(=O)NCC(=O)N[C@@H](C)C(=O)N[C@@H](C)C(=O)N[C@@H](Cc1cnc[nH]1)C(=O)N[C@@H](CC(N)=O)C(=O)NCC(=O)N[C@@H](CO)C(=O)N[C@@H](C)C(=O)N[C@@H](CCC(N)=O)C(=O)N[C@@H](CC(C)C)C(=O)N[C@H](CC(C)C)C(=O)N[C@@H](CCCN=C(N)N)C(=O)N[C@@H](CCC(N)=O)C(=O)N[C@@H](CC(C)C)C(=O)N[C@@H](CCCN=C(N)N)C(=O)NCC(=O)N[C@@H](CCC(N)=O)C(=O)N[C@@H](CC(C)C)C(=O)NCC(=O)N1CCC[C@H]1C(=O)N1CCC[C@H]1C(=O)NCC(=O)N[C@@H](CO)C(=O)N[C@@H](CCCN=C(N)N)C(N)=O	9.36
H-ATLIGAAHNGSAQLLRQLRGQLGPPGSR-NH2	7.82
H-MTLIGAAHNGSAQLLRQLAGQLGPPGSR-NH2	9.11
H-MTLIGAAHNGSAQLLRQSRGQLGPPGSR-NH2	8.92
CC[C@H](C)[C@H](NC(=O)[C@H](CC(C)C)NC(=O)[C@@H](NC(=O)[C@@H](N)CCSC)[C@@H](C)O)C(=O)NCC(=O)N[C@@H](C)C(=O)N[C@@H](C)C(=O)N[C@@H](Cc1c[nH]cn1)C(=O)N[C@@H](CC(N)=O)C(=O)NCC(=O)N[C@@H](CO)C(=O)N[C@@H](C)C(=O)N[C@@H](CCC(N)=O)C(=O)N[C@@H](CC(C)C)C(=O)N[C@@H](CC(C)C)C(=O)N[C@@H](CCCN=C(N)N)C(=O)N[C@@H](CCC(N)=O)C(=O)N[C@@H](CC(C)C)C(=O)N[C@@H](CCCN=C(N)N)C(=O)NCC(=O)N[C@@H](CCC(N)=O)C(=O)N[C@@H](CC(C)C)C(=O)NCC(=O)N1CCC[C@H]1C(=O)N1CCC[C@H]1C(=O)N[C@@H](C)C(=O)N[C@@H](CO)C(=O)N[C@@H](CCCN=C(N)N)C(N)=O	9.74

Second part, the compound after the results:

pEC50	Compound
< 6.59	CC[C@H](C)[C@H](NC(=O)[C@H](CC(C)C)NC(=O)[C@H](NC(=O)[C@@H](N)CCSC)[C@@H](C)O)C(=O)NCC(=O)N[C@@H](C)C(=O)N[C@@H](C)C(=O)N[C@@H](Cc1cnc[nH]1)C(=O)N[C@@H](CC(N)=O)C(=O)NCC(=O)N[C@@H](CO)C(=O)N[C@@H](C)C(=O)N[C@@H](CCC(N)=O)C(=O)N[C@@H](CC(C)C)C(=O)N[C@@H](CC(C)C)C(=O)N[C@@H](CCCN=C(N)N)C(=O)N[C@@H](CCC(N)=O)C(=O)N[C@@H](CC(C)C)C(=O)N[C@@H](CCCN=C(N)N)C(=O)NCC(=O)N[C@@H](CCC(N)=O)C(=O)N[C@@H](CC(C)C)C(=O)NCC(=O)N1CCC[C@H]1C(=O)N1CCC[C@H]1C(=O)NCC(=O)N[C@@H](CO)C(=O)N[C@@H](CCCN=C(N)N)C(N)=O
9.92	CC[C@H](C)[C@H](NC(=O)[C@H](CC(C)C)NC(=O)[C@@H](NC(=O)[C@@H](N)CCSC)[C@@H](C)O)C(=O)NCC(=O)N[C@@H](C)C(=O)N[C@@H](C)C(=O)N[C@@H](Cc1c[nH]cn1)C(=O)N[C@@H](CC(N)=O)C(=O)NCC(=O)N[C@@H](CO)C(=O)N[C@@H](C)C(=O)N[C@@H](CCC(N)=O)C(=O)N[C@@H](CC(C)C)C(=O)N[C@@H](CC(C)C)C(=O)N[C@@H](CCCN=C(N)N)C(=O)N[C@@H](CCC(N)=O)C(=O)N[C@@H](CC(C)C)C(=O)N[C@@H](CCCN=C(N)N)C(=O)NCC(=O)N[C@@H](CCC(N)=O)C(=O)N[C@@H](CC(C)C)C(=O)N[C@@H](C)C(=O)N1CCC[C@H]1C(=O)N1CCC[C@H]1C(=O)NCC(=O)N[C@@H](CO)C(=O)N[C@@H](CCCN=C(N)N)C(N)=O
9.92	H-MTLIGAAHNGSAQLLRQLRGQAGPPGSR-NH2
9.89	H-MTLIGAAHNGSAALLRQLRGQLGPPGSR-NH2
9.08	H-MTLIGGAHNGSAQLLRQLRGQLGPPGSR-NH2
9.89	CC[C@H](C)[C@H](NC(=O)[C@H](CC(C)C)NC(=O)[C@@H](NC(=O)[C@@H](N)CCSC)[C@@H](C)O)C(=O)NCC(=O)N[C@@H](C)C(=O)N[C@@H](C)C(=O)N[C@@H](Cc1cnc[nH]1)C(=O)N[C@@H](CC(N)=O)C(=O)NCC(=O)N[C@@H](CO)C(=O)N[C@@H](C)C(=O)N[C@@H](CCC(N)=O)C(=O)N[C@@H](CC(C)C)C(=O)N[C@@H](CC(C)C)C(=O)N[C@@H](CCCN=C(N)N)C(=O)N[C@@H](CCC(N)=O)C(=O)N[C@@H](CC(C)C)C(=O)N[C@@H](CCCN=C(N)N)C(=O)N[C@H](C)C(=O)N[C@@H](CCC(N)=O)C(=O)N[C@@H](CC(C)C)C(=O)NCC(=O)N1CCC[C@H]1C(=O)N1CCC[C@H]1C(=O)NCC(=O)N[C@@H](CO)C(=O)N[C@@H](CCCN=C(N)N)C(N)=O
9.22	CC[C@H](C)[C@H](NC(=O)[C@H](CC(C)C)NC(=O)[C@@H](NC(=O)[C@@H](N)CCSC)[C@@H](C)O)C(=O)NCC(=O)N[C@@H](C)C(=O)N[C@@H](C)C(=O)N[C@@H](Cc1cnc[nH]1)C(=O)N[C@@H](CC(N)=O)C(=O)NCC(=O)N[C@@H](CO)C(=O)N[C@@H](C)C(=O)N[C@@H](CCC(N)=O)C(=O)N[C@@H](CC(C)C)C(=O)N[C@@H](CC(C)C)C(=O)N[C@@H](CCCN=C(N)N)C(=O)N[C@@H](CCC(N)=O)C(=O)N[C@H](CC(C)C)C(=O)N[C@@H](CCCN=C(N)N)C(=O)NCC(=O)N[C@@H](CCC(N)=O)C(=O)N[C@@H](CC(C)C)C(=O)NCC(=O)N1CCC[C@H]1C(=O)N1CCC[C@H]1C(=O)NCC(=O)N[C@@H](CO)C(=O)N[C@@H](CCCN=C(N)N)C(N)=O
8.80	H-MTLIGAAHNGAAQLLRQLRGQLGPPGSR-NH2
10.28	CC[C@H](C)[C@H](NC(=O)[C@H](CC(C)C)NC(=O)[C@@H](NC(=O)[C@@H](N)CCSC)[C@@H](C)O)C(=O)NCC(=O)N[C@@H](C)C(=O)N[C@@H](C)C(=O)N[C@@H](Cc1c[nH]cn1)C(=O)N[C@@H](CC(N)=O)C(=O)NCC(=O)N[C@@H](CO)C(=O)N[C@@H](C)C(=O)N[C@@H](CCC(N)=O)C(=O)N[C@H](CC(C)C)C(=O)N[C@@H](CC(C)C)C(=O)N[C@@H](CCCN=C(N)N)C(=O)N[C@@H](CCC(N)=O)C(=O)N[C@@H](CC(C)C)C(=O)N[C@@H](CCCN=C(N)N)C(=O)NCC(=O)N[C@@H](CCC(N)=O)C(=O)N[C@@H](CC(C)C)C(=O)NCC(=O)N1CCC[C@H]1C(=O)N1CCC[C@H]1C(=O)NCC(=O)N[C@@H](CO)C(=O)N[C@@H](CCCN=C(N)N)C(N)=O
